Experimental data reported in patent publication US20030018079A1, “Treatment” (priority 2000, published 2003).

Test: Studies 004 and 005 together: timolol run-in and comparison of patient groups
Assay type: in vivo, patients
Settings: timolol run-in period before baseline
Description: A sub-population of 76 individuals in a population of total 854 patients enrolled into two different studies of German patients (004) and US patients (005) were identified at baseline as having some degree of abnormality to the optic nerve head together with a glaucomatous visual field defect and were treated with a fixed combination (FC) of latanoprost and timolol. Both studies were based on a randomized double-masked parallel group design. In both studies, a fixed combination (FC) of latanoprost and timolol was administered to a group of patients with optic nerve head damage and visual field loss (i.e. glaucomatous field defects) and to groups of patients without any such detected damages, but with an elevation of IOP. Patient demography and baseline characteristics in patients with and without optic nerve head damages and glaucomatous field defects are shown in Table 2.1.
The patients is the studies received one drop in the morning of a fixed combination of latanoprost (50 μg/ml) and timolol (5 mg/ml) during the study duration of 26 weeks. The exact composition of fixed combination is disclosed in Table 1. At baseline, IOP assessments were made at 08:00, 10:00, and 16:00. Measurements at the same time-points were subsequently made at scheduled clinic visits at Week 2, Week 13, and Week 26. Additionally, an 08:00 measurement was also obtained at Week 6. […]

## CC(C)(C)NC[C@H](O)COc1nsnc1N1CCOCC1 [timolol]
  decrease in IOP: approximately 5 mm Hg
